Assay results: EP0433074B1, “Method for treating cardiac malfunction” (THE GENERAL HOSPITAL CORPORATION, priority 1989, dated 1991)

How the values were obtained:
[1] = tested on: rat abdominal aortic rings; assay: Vascular tension in isolated aortic rings; set-up: species or system Sprague-Dawley rats; conditions: KCl 20 mM; above resting tension of 1.5 g
Experimental: Experiments were conducted to determine the vasoconstrictive properties of HIF. The protocol for these experiments is described in greater detail in Example V. In general, Sprague-Dawley rats were anesthetized and the abdominal aorta surgically removed. 2 mm vascular rings were attached to a force transducer and bathed in buffer, and tension adjusted to 1.5 g. Tissue viability was documented and vasoconstrictive responses calibrated using known vasoconstrictors such as potassium chloride and norepinephrine. Blood vessels thus prepared were then tested with varing doses of HIF.
Sprague-Dawley rats weighing 250-350 grams were anesthetized with pentobarbital intraperitoneally, the abdominal aorta rapidly excised and dissected free of all loose connective tissue in cold Krebs-Henseleit bicarbonate buffer of the following composition, mM: NaCl, 118.3; KCl, 4.7; MgSo₄, 1.2; KH₂PO₄, 1.2; CaCl₂, 2.5; NaHCO₃, 25.0; Na-EDTA, 0.016; and glucose, 11.1. 2-3 mm (length) vascular rings were excised, attached to a force transducer and bathed in a water jacketed (37°C) organ chamber containing 5 ml of the above buffer gassed with 95% O₂ and 5% CO₂. […] force measurements were obtained with a Grass force displacement transducer attached to a Grass 79D polygraph DC amplifier, and recorded with a two-channel Kipp Zonen recorder. […]

[2] = tested on: cultured cardiac myocytes; assay: Cytosolic free Ca²⁺ measured with fura-2 in cultured cardiac myocytes; type: cell-based, rat; conditions: ouabain 10^-6 M, steady state, control 138±3
Experimental: Myocardial cells were isolated from ventrical fragments of the hearts of 1-day old Sprague-Dawley rats by serial trypsinizations in a Ca²⁺ and Mg²⁺-free Hanks Buffered Salt Solution (HBSS) as previously described (Yagev, S., et al., In Vitro, 20:893-898 (1984)). Trypsinized cells were decanted into HamF10 medium containing 20% serum and antibiotics and centrifuged at 1000 r.p.m. for 10 minutes. The cell pellet was resuspended in HamF10 medium containing fetal calf serum and 10% horse serum with 0.1% penicillin-streptomycin, and diluted to a concentration of 5 x 10⁵ cells/ml. For measurements of cytosolic free calcium concentration ([Ca²⁺]i), the cells were plated on rectangular glass coverslips (13 x 30 mm) and for measurements of cell contractility, plated on circular glass coverslips (12 mm), and both types of coverslips placed inside petri dishes. […]
Changes in [Ca²⁺] i were detected using the fluorescent probe, fura-2 (Grynkiewicz, G., et al., J. Biol. Chem., 260:3440-3450 (1985)). […] The fluorescence was continuously recorded using a PTI DeltaScan 1 spectrofluorometer. […] Values of [Ca²⁺]i were calculated from the ratio R = F₃₄₀/F₃₈₀ [formula] […] Rmax and Rmin were determined in separate experiments using digitonin to equilibrate [Ca²⁺]i with ambient [Ca²⁺] […] Background autofluorescence was measured in unloaded cells and substracted from all measurements.

[3] = tested on: neonatal rat cardiac myocytes; assay: ⁸⁶Rb⁺ influx (Na⁺ pump activity) in cultured cardiac cells; type: cell-based; conditions: ouabain 5 mM, 20 min preincubation
Experimental: Na⁺ pump activity was estimated in the cultured cardiac cells as the difference in ⁸⁶Rb⁺ uptake observed in the absence and presence of 5 mM ouabain, following the method of Panet et al (Panet, R., et al., J. Memb. Biol., 70:165-169 (1982)). To insure saturation binding, myocytes were preincubated for 20 minutes with HIF (2 unit/ml) or ouabain (5 mM) or both prior to addition of ⁸⁶Rb⁺ to run the 10 minute flux. Myocyte monolayers were washed with HEPES buffer solution (final concentrations, mM: NaCl 150, RbCl 5, HEPES-Tris 10 (pH7.0) , CaCl₂ 1, MgCl₂ 5, glucose 10), and the uptake initiated by covering over with 0.5 ml of same solution pre-warmed to 37°C and containing 2 uCi ⁸⁶RbCl. […] The cells were lysed with 0.6 ml of 0.1 N NaOH containing 0.1% (w/v) sodium dodecylsulfate, and the radioactivity counted in Instagel (Packard) scintillation medium.
The concentration dependence of HIF inhibition was determined by preincubating cells with HIF at 0.5 units/ml, 0.8 units/ml, 1 unit/ml, 2 units/ml and 4 units/ml concentration for 20 min. ⁸⁶RbCl (2 uCi/well) was then added to run the flux.

[4] = tested on: cardiac myocytes; assay: Myocyte contractility (amplitude of systolic motion, beating frequency), phase contrast video motion detector; type: cell-based, rat
Experimental: In general, the amplitude of contraction (i.e., degree of positive inotropy) was measured in single, beating myocytes as the amplitude of systolic motion (ASM) using a phase contrast video motion detector system. The same detector system was used to measure toxicity, which is evidenced as a decrease in ASM, a change in the position of maximal relaxation (MR), and an increase in beating frequency.
Myocardial cells were isolated from ventrical fragments of the hearts of 1-day old Sprague-Dawley rats by serial trypsinizations in a Ca²⁺ and Mg²⁺-free Hanks Buffered Salt Solution (HBSS) as previously described (Yagev, S., et al., In Vitro, 20:893-898 (1984)). Trypsinized cells were decanted into HamF10 medium containing 20% serum and antibiotics and centrifuged at 1000 r.p.m. for 10 minutes. The cell pellet was resuspended in HamF10 medium containing fetal calf serum and 10% horse serum with 0.1% penicillin-streptomycin, and diluted to a concentration of 5 x 10⁵ cells/ml. For measurements of cytosolic free calcium concentration ([Ca²⁺]i), the cells were plated on rectangular glass coverslips (13 x 30 mm) and for measurements of cell contractility, plated on circular glass coverslips (12 mm), and both types of coverslips placed inside petri dishes. For measurements of ⁸⁶Rb⁺ uptake cells were plated in petri dishes (1 - 1.5 x 10⁶ cells/35mm dish). All cultures were incubated in humidified 5% CO₂, 95% air at 37°C.
Contractility, determined as amplitude of systolic cell motion (ASM), and beating frequency were measured in individual cells using a phase contrast microscope video motion detector system according to the method of Barry, et al. (Barry, W.H., et al., Circ. Res., 56:231-241 (1985)). A glass coverslip with attached cultured myocytes was placed in a chamber provided with inlet and exit ports for medium perfusion. The chamber was enclosed in a Lucite box at 37°C and placed on the stage of an inverted phase contrast microscope. The cells were covered with 1 ml medium containing HIF or ouabain. During continuous perfusion, medium bathing a cell in the center of a coverslip exchanged with a time constant of 15 seconds at a flow rate of 0.96 ml/minutes. Image was magnified using a 40x objective, and motion monitored by a low-light-level TV camera attached to the microscope and calibrated with 262 raster lines. […] The analog voltage output from the motion detector is filtered at low pass filter and calibrated to indicate actual um of motion, and the derivative is obtained electronically and recorded as velocity of motion in um/sec. […] The changes in contractility induced by ouabain or HIF were calculated in comparison with the contractility of the same cells before addition of ouabain or HIF.

| Structure (SMILES) | Change in Tension in Rat Aorta, % increase [1] [%] | [Ca²⁺]i [2] [nM] | [Ca²⁺]i ([2]; listed as Ouabain) [nM] | inhibition at 5000 µM ([3]; Rattus norvegicus, read-out: decrease of total ⁸⁶Rb⁺ uptake) [%] | total ⁸⁶Rb⁺ uptake ([3]; 10 min flux, control 810 nmol/mg protein) [nmol/mg] | activation at 0.5 µM ([4]; Rattus norvegicus, ouabain 5x10^-7 M, read-out: ASM, % increase) [%] | inhibition at 0.5 µM ([4]; Rattus norvegicus, ouabain 5x10^-7 M, read-out: Rate, % decrease) [%] | toxicity on contracting myocytes (decrease in ASM, elevation in position of MR, increase in beating frequency) ([4]; ouabain 1 uM) | ASM, % increase ([4]; ouabain 5x10^-7 M, listed as Ou) [%] |
| --- | --- | --- | --- | --- | --- | --- | --- | --- | --- |
| [Cl-].[K+] [KCl, potassium chloride] | 20 | – | – | – | – | – | – | – | – |
| C[C@@H]1O[C@@H](O[C@H]2C[C@@H](O)[C@]3(CO)[C@H]4[C@H](O)C[C@]5(C)[C@@H](C6=CC(=O)OC6)CC[C@]5(O)[C@@H]4CC[C@]3(O)C2)[C@H](O)[C@H](O)[C@H]1O [ouabain] | – | 287 ± 15 | 287 ± 15 | 74 | 210 | 41 | 23 ± 2 | toxic range | 41±3 |
